Source: ChEMBL document CHEMBL2203150, “CXCR3 antagonists: quaternary ammonium salts equipped with biphenyl- and polycycloaliphatic-anchors” (Bioorg Med Chem, 2011)

What follows are compounds tested against T1, C-X-C chemokine receptor type 3 (Homo sapiens, UniProt P49682) (assay: Displacement of [125I]-CXCL11 from human CXCR3 expressed in HEK293 cells). Conditions: not given.
T1 sequence (P49682 whole entry): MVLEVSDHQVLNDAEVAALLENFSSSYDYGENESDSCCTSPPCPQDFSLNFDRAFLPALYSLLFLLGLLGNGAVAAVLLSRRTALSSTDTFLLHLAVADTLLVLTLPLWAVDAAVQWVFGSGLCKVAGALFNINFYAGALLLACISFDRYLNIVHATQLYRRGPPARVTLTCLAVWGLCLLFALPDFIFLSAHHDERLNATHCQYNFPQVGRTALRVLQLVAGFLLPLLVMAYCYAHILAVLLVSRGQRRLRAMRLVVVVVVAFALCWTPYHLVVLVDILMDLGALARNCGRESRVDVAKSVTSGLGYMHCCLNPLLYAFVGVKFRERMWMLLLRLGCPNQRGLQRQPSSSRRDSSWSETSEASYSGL
Assay type: cell-based

Row | Compound | Ki [nM]
1 | CC1(C)[C@H]2CC=C(C[N+](C)(C)Cc3ccc(Cl)cc3)[C@@H]1C2 | 501
2 | CC1(C)[C@H]2CC=C(C[N+](C)(C)Cc3ccc(-c4cccc(Cl)c4)cc3)[C@@H]1C2 | 316
3 | CC1(C)[C@H]2CC=C(C[N+](C)(C)Cc3ccc(I)cc3)[C@@H]1C2 | 398
4 | CC1(C)[C@H]2CC=C(C[N+](C)(C)Cc3ccc(-c4ccsc4)cc3)[C@@H]1C2 | 316
5 | N=C(Nc1ccc(I)cc1)NC1C2CC3CC(C2)CC1C3 (stereo not drawn) | 3980

The compounds below were run against T1, C-X-C chemokine receptor type 3 (assay: Displacement of [125I]-CXCL10 from human CXCR3 expressed in HEK293 cells). Conditions: not given.
Assay type: cell-based

Row | Compound | Ki [nM]
6 | CC1(C)[C@H]2CC=C(C[N+](C)(C)Cc3ccc(-c4cccc(N)c4)cc3)[C@@H]1C2 | 3160
7 | CN(CC1=CC[C@H]2C[C@@H]1C2(C)C)Cc1ccc(-c2cc(Cl)cc(Cl)c2)cc1 | > 316
8 | CN(CC1=CC[C@H]2C[C@@H]1C2(C)C)Cc1ccc(-c2cccc(C(F)(F)F)c2)cc1 | > 316
9 | CC1(C)[C@H]2CC=C(C[N+](C)(C)Cc3ccccc3I)[C@@H]1C2 | 1580
10 | CN(CC1=CC[C@H]2C[C@@H]1C2(C)C)Cc1ccc(Br)cc1 | 3160
11 | CC1(C)[C@H]2CC=C(C[N+](C)(C)Cc3ccc(-c4cccc(C(F)(F)F)c4)cc3)[C@@H]1C2 | 501
12 | CN(CC1=CC[C@H]2C[C@@H]1C2(C)C)Cc1ccc(Cl)cc1 | 2510
13 | CC1(C)[C@H]2CC=C(C[N+](C)(C)Cc3ccc(-c4cc(Cl)cc(Cl)c4)cc3)[C@@H]1C2 | 398
14 | CN(Cc1ccc(I)cc1)CC1C[C@H]2CC[C@]1(C)C2(C)C (mixture of isomers) | 7940
15 | C[N+](C)(C/C1=C/CCCCCC1)Cc1ccc(I)cc1 (mixture of isomers) | 1000
16 | COc1ccc(-c2ccc(C[N+](C)(C)CC3=CC[C@H]4C[C@@H]3C4(C)C)cc2)cc1OC | 501
17 | CC1(C)[C@H]2CC=C(C[N+](C)(C)Cc3ccc(Br)cc3)[C@@H]1C2 | 316
18 | CC1(C)[C@H]2CC=C(C[N+](C)(C)Cc3cccc(I)c3)[C@@H]1C2 | 2000
19 | CC1(C)[C@H]2CC=C(C[N+](C)(C)Cc3ccc4oc5ccccc5c4c3)[C@@H]1C2 | 501
20 | C[N+](C)(CCC12CC3CC(CC(C3)C1)C2)Cc1ccc(I)cc1 | 631
21 | Ic1ccc(CNCC2C3CC4CC(C3)CC2C4)cc1 (stereo not drawn) | 2510
22 | COC(=O)c1cccc(-c2ccc(CN(C)CC3=CC[C@H]4C[C@@H]3C4(C)C)cc2)c1 | > 316
23 | C[N+](C)(Cc1ccc(I)cc1)CC12CC3CC(CC(C3)C1)C2 | 2000
24 | CN(CC1=CC[C@H]2C[C@@H]1C2(C)C)Cc1cccc(-c2ccccc2)c1 | > 316
25 | CC1(C)[C@H]2CC=C(C[N+](C)(C)Cc3ccccc3)[C@@H]1C2 | 3980
26 | CN(CC1=CC[C@H]2C[C@@H]1C2(C)C)Cc1ccc(-c2ccc(Cl)cc2)cc1 | > 316
27 | CC1(C)[C@H]2CC=C(C[N+](C)(C)Cc3ccc(-c4ccc(Cl)cc4)cc3)[C@@H]1C2 | 501
28 | Cc1cccc(-c2ccc(CN(C)CC3=CC[C@H]4C[C@@H]3C4(C)C)cc2)c1 | > 316
29 | Cn1c2ccccc2c2ccc(C[N+](C)(C)CC3=CC[C@H]4C[C@@H]3C4(C)C)cc21 | 1000
30 | CN(CC1=CC[C@H]2C[C@@H]1C2(C)C)Cc1ccc(-c2ccccc2)cc1 | 3160
31 | CC1(C)[C@H]2CC=C(C[N+](C)(C)Cc3ccc(Cl)cc3)[C@@H]1C2 | 200

Row | Compound | Ki [nM]
32 | CN(CC1=CC[C@H]2C[C@@H]1C2(C)C)Cc1ccc(-c2cccc([N+](=O)[O-])c2)cc1 | 2000
33 | CC1(C)[C@H]2CC=C(C[N+]3(C)CCc4ccccc4C3)[C@@H]1C2 (stereo partly drawn) | 2510
34 | CC1(C)[C@H]2CC=C(C[N+](C)(C)Cc3ccc(-c4cccc(Cl)c4)cc3)[C@@H]1C2 | 126
35 | CC1(C)[C@H]2CC=C(C[N+](C)(C)Cc3ccc(I)cc3)[C@@H]1C2 | 251
36 | CN(C/C1=C/CCCCCC1)Cc1ccc(I)cc1 (mixture of isomers) | 7940
37 | Cc1cccc(-c2ccc(C[N+](C)(C)CC3=CC[C@H]4C[C@@H]3C4(C)C)cc2)c1 | 398
38 | CC1(C)[C@H]2CC=C(C[N+](C)(C)Cc3ccc(Cl)c(Cl)c3)[C@@H]1C2 | 398
39 | CC(=O)c1cccc(-c2ccc(CN(C)CC3=CC[C@H]4C[C@@H]3C4(C)C)cc2)c1 | > 316
40 | CC1(C)[C@H]2CC=C(C[N+](C)(C)Cc3ccc(-c4ccsc4)cc3)[C@@H]1C2 | 200
41 | CN(CC1=CC[C@H]2C[C@@H]1C2(C)C)Cc1cccc(I)c1 | 7940
42 | CC1(C)[C@H]2CC=C(C[N+](C)(C)Cc3ccc(-c4cccc([N+](=O)[O-])c4)cc3)[C@@H]1C2 | 200
43 | CN(CC1=CC[C@H]2C[C@@H]1C2(C)C)Cc1ccc(Cl)c(Cl)c1 | 3160
44 | CC1(C)[C@H]2CC=C(C[N+](C)(C)Cc3ccc(-c4ccc(C(F)(F)F)cc4)cc3)[C@@H]1C2 | 1260
45 | CN(CC1=CC[C@H]2C[C@@H]1C2(C)C)Cc1ccccc1I | 5010
46 | CN(CCc1ccc(Cl)cc1)CC1=CC[C@H]2C[C@@H]1C2(C)C | 5010
47 | CC[N+](C)(CC1=CC[C@H]2C[C@@H]1C2(C)C)Cc1ccc(I)cc1 (stereo partly drawn) | 631
48 | CC1(C)[C@H]2CC=C(C[N+](C)(C)CCc3ccc(Cl)cc3)[C@@H]1C2 | 1000
49 | CN(CC1=CC[C@H]2C[C@@H]1C2(C)C)Cc1ccc(I)cc1 | 3160
50 | CN(CC1=CC[C@H]2C[C@@H]1C2(C)C)Cc1ccc(F)cc1 | 6310
51 | CC1(C)[C@@H]2CC[C@@]1(C)C(C[N+](C)(C)Cc1ccc(I)cc1)C2 (mixture of isomers) | 1580
52 | CC(=O)c1cccc(-c2ccc(C[N+](C)(C)CC3=CC[C@H]4C[C@@H]3C4(C)C)cc2)c1 | 631
53 | CN(CC1=CC[C@H]2C[C@@H]1C2(C)C)Cc1ccc2oc3ccccc3c2c1 | > 316
54 | CC1(C)[C@H]2CC=C(C[N+](C)(C)Cc3ccc4c(c3)Cc3ccccc3-4)[C@@H]1C2 | 501
55 | CN(CC1=CC[C@H]2C[C@@H]1C2(C)C)Cc1ccc(-c2ccccc2F)cc1 | > 316
56 | N=C(Nc1ccc(I)cc1)NC1C2CC3CC(C2)CC1C3 (stereo not drawn) | 3980
57 | CCN(CC1=CC[C@H]2C[C@@H]1C2(C)C)Cc1ccc(I)cc1 | 3980

Row | Compound | Ki [nM]
58 | CN(CC1=CC[C@H]2C[C@@H]1C2(C)C)Cc1ccc(-c2ccsc2)cc1 | 3980
59 | COC(=O)c1cccc(-c2ccc(C[N+](C)(C)CC3=CC[C@H]4C[C@@H]3C4(C)C)cc2)c1 | 1000
60 | CN(CC1=CC[C@H]2C[C@@H]1C2(C)C)Cc1ccc(-c2cccc(F)c2)cc1 | 2510
61 | CN(CC1=CC[C@H]2C[C@@H]1C2(C)C)Cc1ccccc1 | 15800
62 | CC1(C)[C@H]2CC=C(C[N+](C)(C)Cc3ccc(-c4ccccc4F)cc3)[C@@H]1C2 | 631
63 | CC1(C)[C@H]2CC=C(C[N+](C)(C)Cc3ccc(-c4ccccc4)cc3)[C@@H]1C2 | 316
64 | CC1(C)[C@H]2CC=C(C[N+](C)(C)Cc3ccc(-c4cccc(O)c4)cc3)[C@@H]1C2 | 1580
65 | CN(CC1=CC[C@H]2C[C@@H]1C2(C)C)Cc1ccc2c(c1)Cc1ccccc1-2 | > 316
66 | CC1(C)[C@H]2CC=C(CN3CCc4ccccc4C3)[C@@H]1C2 | 12600
67 | CN(CC1=CC[C@H]2C[C@@H]1C2(C)C)Cc1ccc(-c2ccc(C(F)(F)F)cc2)cc1 | > 316
68 | CN(CC1=CC[C@H]2C[C@@H]1C2(C)C)Cc1ccc(Oc2ccccc2)cc1 | > 316
69 | CC1(C)[C@H]2CC=C(C[N+](C)(C)Cc3ccc(F)cc3)[C@@H]1C2 | 1260
70 | CN(CC1=CC[C@H]2C[C@@H]1C2(C)C)Cc1ccc(-c2cccc(Cl)c2)cc1 | 3980
71 | CN(CC1=CC[C@H]2C[C@@H]1C2(C)C)Cc1ccc(-c2cccc(N)c2)cc1 | 6310
72 | CN(CC1=CC[C@H]2C[C@@H]1C2(C)C)Cc1ccc(-c2cccc(O)c2)cc1 | > 316
73 | CN(CCC12CC3CC(CC(C3)C1)C2)Cc1ccc(I)cc1 | 5010
74 | CC1(C)[C@H]2CC=C(C[N+](C)(C)Cc3ccc(-c4ccoc4)cc3)[C@@H]1C2 | 251
75 | C[N+](C)(Cc1ccc(I)cc1)CC1C2CC3CC(C2)CC1C3 (stereo not drawn) | 794
76 | CC1(C)[C@H]2CC=C(C[N+](C)(C)Cc3cccc(-c4ccccc4)c3)[C@@H]1C2 | 3160
77 | CN(CC1=CC[C@H]2C[C@@H]1C2(C)C)Cc1ccc(-c2ccoc2)cc1 | 6310
78 | CC1(C)[C@H]2CC=C(C[N+](C)(C)Cc3ccc(Oc4ccccc4)cc3)[C@@H]1C2 | 2000
79 | CC1(C)[C@H]2CC=C(C[N+](C)(C)Cc3ccc(-c4cccc(F)c4)cc3)[C@@H]1C2 | 316
80 | COc1ccc(-c2ccc(CN(C)CC3=CC[C@H]4C[C@@H]3C4(C)C)cc2)cc1OC | > 316
81 | CN(Cc1ccc(I)cc1)CC1C2CC3CC(C2)CC1C3 (stereo not drawn) | 7940
82 | CN(CC1=CC[C@H]2C[C@@H]1C2(C)C)Cc1ccc2c3ccccc3n(C)c2c1 | > 316

What follows are compounds tested against T2, C-X-C chemokine receptor type 3 (Homo sapiens) (UniProt P49682) (assay: Antagonist activity at human CXCR3 expressed in HEK293T cells co-expressing Galphaqi5 assessed as inhibition of CXCL10-induced [3H]-inositolphosphates levels). Conditions: HEK-293T.
T2 sequence (whole entry): T1 sequence (P49682 whole entry)
Assay type: functional, cell-based

Row | Compound | pKb | inhibition
83 | CC1(C)[C@H]2CC=C(C[N+](C)(C)Cc3ccc(Cl)cc3)[C@@H]1C2 | 6.3 | 
84 | CC1(C)[C@H]2CC=C(C[N+](C)(C)Cc3ccc(-c4cccc(Cl)c4)cc3)[C@@H]1C2 | 6.3 | 
85 | CC1(C)[C@H]2CC=C(C[N+](C)(C)Cc3ccc(I)cc3)[C@@H]1C2 | 6.6 | 
86 | CC1(C)[C@H]2CC=C(C[N+](C)(C)Cc3ccc(-c4ccsc4)cc3)[C@@H]1C2 | 6.4 | 
87 | CCOc1ccc(-n2c([C@@H](C)N(Cc3cccnc3)C(=O)Cc3ccc(OC(F)(F)F)cc3)nc3ncccc3c2=O)cc1 | 8 | Dose-dependent effect
